Experimental data taken from patent publication US20040266862A1, “Method of improving animal tissue quality by supplementing the animal diet with mixed tocotrienols” (priority 2003, published 2004).
Marks after values point to notes of the source that are not given here.

Tests used:
Type in all cases: in vivo
swine [1] = assay: 2002 swine feed test: 21-day raw pork loin quality measurements; set-up: key to Hunter a: Hunter a; more positive = redder; key to Hunter b: Hunter b; more positive = more yellow; Hunter a* / Hunter b*: scale not given here; settings: for Chop purge, % / Cooking Loss, %: 21-day pork loin; for Hunter L / Hunter L* / Hunter a / Hunter a* / Hunter b / Hunter b* / Loin pH / Loin purge, %: 21-day raw pork loin; for Instron force, kg: force to pierce loin chop
Description: Applicants conducted a second swine feeding trial to further determine the effects on meat quality of supplementation of a swine diet with alpha-tocopherol (AT), gamma-tocopherol (GT) or mixed tocotrienols (MT). Seventy-two barrows (˜75 lbs.) were transported to the Pioneer Livestock Nutrition Center (PLNC) and randomly placed into individual pens with water and feed provided ad libitum. The pigs received a common diet for seven days. On the eighth day the pigs were weighed individually and a uniform group of sixty pigs with an average body weight of about 75 pounds was selected. The pigs were randomly assigned one of five dietary treatments with 12 pigs per treatment. The feeding trial was initiated on Mar. 12, 2002 and ended on Jun. 19, 2002.
The pigs were fed a corn-soybean meal diet formulated to provide adequate levels of all nutrients. In addition, one of five dietary treatments was assigned to each group: control, 300 ppm AT, 450 ppm GT, 150 ppm MT, and 300 ppm MT. To each diet a corn oil premix and a ground corn premix were added with the corn oil premix as a carrier for the supplemental tocopherols and the ground corn premix as the carrier for the MT. The MT supplement was obtained commercially from Fuji Chemical Industries (U.S.A.) Inc. of Robbinsville, N.J., and contained 7.5% alpha-, 12.3% gamma- and 3.0% delta-tocotrienol, as well as 7.2% alpha-tocopherol.
Approximately twenty-one days after slaughter the loins were removed from vacuum bags and weighed. The liquid that had accumulated in the bags during storage was measured to calculate 21-day purge. Loin pH was measured at three locations by carefully inserting a glass probe into the mid-point of the anterior, mid and posterior thirds of each loin. As expected, measurement location (blade, chop or shoulder) affected loin pH, Hunter L, L* and a* values.
The Hunter L, a and b values were measured with a Hunter laboratory system for color evaluation. Hunter L is a measurement of the lightness of an object, and may be thought of as the light reflectance from the surface of an object. Thus, a higher Hunter L value indicates a lighter color, and an L value of 100 would indicate prefect reflectance from the surface. (The white standard has an L value of 97.21.) An increasingly positive Hunter a value indicates a redder color, and an increasingly positive Hunter b value indicates a more yellow color.

swine [2] = assay: 2002 swine feed test: sensory characteristics of cooked pork loin chops
Description: Applicants conducted a second swine feeding trial to further determine the effects on meat quality of supplementation of a swine diet with alpha-tocopherol (AT), gamma-tocopherol (GT) or mixed tocotrienols (MT). Seventy-two barrows (˜75 lbs.) were transported to the Pioneer Livestock Nutrition Center (PLNC) and randomly placed into individual pens with water and feed provided ad libitum. The pigs received a common diet for seven days. On the eighth day the pigs were weighed individually and a uniform group of sixty pigs with an average body weight of about 75 pounds was selected. The pigs were randomly assigned one of five dietary treatments with 12 pigs per treatment. The feeding trial was initiated on Mar. 12, 2002 and ended on Jun. 19, 2002. The pigs were fed a corn-soybean meal diet formulated to provide adequate levels of all nutrients. In addition, one of five dietary treatments was assigned to each group: control, 300 ppm AT, 450 ppm GT, 150 ppm MT, and 300 ppm MT. To each diet a corn oil premix and a ground corn premix were added with the corn oil premix as a carrier for the supplemental tocopherols and the ground corn premix as the carrier for the MT. The MT supplement was obtained commercially from Fuji Chemical Industries (U.S.A.) Inc. of Robbinsville, N.J., and contained 7.5% alpha-, 12.3% gamma- and 3.0% delta-tocotrienol, as well as 7.2% alpha-tocopherol. A one-inch thick chop was collected from the 10th rib region of each pig carcass to evaluate the effects of dietary treatment on cooked product characteristics. Sensory evaluation was conducted using a trained sensory panel. Each panelist evaluated a ½ inch cube removed from the center of a cooked pork chop immediately after reaching 71 degrees C. Samples were evaluated for degree of juiciness, tenderness, chewiness, pork flavor and off-flavor intensity.

swine [3] = assay: 2002 swine feed test: fat and TBARS content of raw ground pork
Description: Applicants conducted a second swine feeding trial to further determine the effects on meat quality of supplementation of a swine diet with alpha-tocopherol (AT), gamma-tocopherol (GT) or mixed tocotrienols (MT). Seventy-two barrows (˜75 lbs.) were transported to the Pioneer Livestock Nutrition Center (PLNC) and randomly placed into individual pens with water and feed provided ad libitum. The pigs received a common diet for seven days. On the eighth day the pigs were weighed individually and a uniform group of sixty pigs with an average body weight of about 75 pounds was selected. The pigs were randomly assigned one of five dietary treatments with 12 pigs per treatment. The feeding trial was initiated on Mar. 12, 2002 and ended on Jun. 19, 2002. The pigs were fed a corn-soybean meal diet formulated to provide adequate levels of all nutrients. In addition, one of five dietary treatments was assigned to each group: control, 300 ppm AT, 450 ppm GT, 150 ppm MT, and 300 ppm MT. To each diet a corn oil premix and a ground corn premix were added with the corn oil premix as a carrier for the supplemental tocopherols and the ground corn premix as the carrier for the MT. The MT supplement was obtained commercially from Fuji Chemical Industries (U.S.A.) Inc. of Robbinsville, N.J., and contained 7.5% alpha-, 12.3% gamma- and 3.0% delta-tocotrienol, as well as 7.2% alpha-tocopherol. Trimmed bellies were collected to measure the effects of dietary treatments on ground pork oxidation rate. The bellies were ground through a meat grinder and mixed. Four one-pound samples of each ground belly were placed on a retail meat tray and covered with oxygen permeable film. On each of days 1, 7, 10 and 16 post-grinding, one of the trays was opened and a sample submitted for TBARS (thiobarbituric acid reactive substances) determination, a measure of the extent of oxidation.

[4] = scale of 1 to 10, 300 ppm in diet
[5] = scale of 1 to 10, 450 ppm in diet

## Cc1c(C)c2c(c(C)c1O)CC[C@@](C)(CCC[C@H](C)CCC[C@H](C)CCCC(C)C)O2 [AT, alpha-tocopherol]
Swine [1]; 300 ppm in diet
  Chop purge, %: 1.97%
  Cooking Loss, %: 20.11%
  Hunter L: 46.68
  Hunter L*: 53.86
  Hunter a: 5.71
  Hunter a*: 6.76
  Hunter b: 8.60
  Hunter b*: 15.77
  Loin pH: 5.66
  Loin purge, %: 0.99%
  Instron force, kg: 4.98^b kg
Swine [2]; [4]
  Chewiness: 2.3
  Juiciness: 6.0
  Off-flavor: 4.3
  Pork Flavor: 1.8
  Tenderness: 7.8
Swine [3]; Day 1 post-grinding, 300 ppm in diet
  TBARS content: 0.13 mg Malonaldehyde/kg sample
Swine [3]; Day 7 post-grinding, 300 ppm in diet
  TBARS content: 0.18 mg Malonaldehyde/kg sample
Swine [3]; Day 10 post-grinding, 300 ppm in diet
  TBARS content: 0.34 mg Malonaldehyde/kg sample
Swine [3]; Day 16 post-grinding, 300 ppm in diet
  TBARS content: 1.46^ab mg Malonaldehyde/kg sample

## Cc1c(O)cc2c(c1C)O[C@](C)(CCC[C@H](C)CCC[C@H](C)CCCC(C)C)CC2 [GT, gamma-tocopherol]
Swine [1]; 450 ppm in diet
  Chop purge, %: 2.40%
  Cooking Loss, %: 20.27%
  Hunter L: 45.47
  Hunter L*: 52.53
  Hunter a: 6.00
  Hunter a*: 7.14
  Hunter b: 8.41
  Hunter b*: 15.61
  Loin pH: 5.67
  Loin purge, %: 1.16%
  Instron force, kg: 5.53^a kg
Swine [2]; [5]
  Chewiness: 2.5
  Juiciness: 5.4
  Off-flavor: 3.9
  Pork Flavor: 1.8
  Tenderness: 7.3
Swine [3]; Day 1 post-grinding, 450 ppm in diet
  TBARS content: 0.19 mg Malonaldehyde/kg sample
Swine [3]; Day 7 post-grinding, 450 ppm in diet
  TBARS content: 0.17 mg Malonaldehyde/kg sample
Swine [3]; Day 10 post-grinding, 450 ppm in diet
  TBARS content: 0.32 mg Malonaldehyde/kg sample
Swine [3]; Day 16 post-grinding, 450 ppm in diet
  TBARS content: 1.01^b mg Malonaldehyde/kg sample
